The test system of one assay is HCT116 (colon). In words: In vitro cytotoxic activity assay (MTT), HCT116. It is filed as cell-based. The note with it: Homo sapiens, HCT-116; HCT116 (colon) cells, exposed for 96 hours; read-out: IC50, 50% inhibition of cell proliferation. How it is done:
(§1) Compounds 1-15 were screened for their in vitro cytotoxic activity utilizing a 3-(4,5-dimethyl-thiazol-2-yl)-2,5-diphenyltetrazolium bromide (MTT) assay against selected cancer human cell lines consisting of PC3 (prostate), HCT116 (colon), A375 (melanoma), H1299 (lung), MIAPaCa-2 (pancreas), HL60 (leukemia), MCF7 (breast), MDA-MB-231 (breast) (T. Mosmann, J. Immunol. Meth., 1983, 65, 55-63). The cells were cultured at 37° C. in RMPI1640 medium supplemented with 10% fetal bovine serum, 50 IU/mL penicillin, and 50 μg/mL streptomycin in a 5% CO2 incubator. All cells were sub-cultured 3 times/week by trypsinisation. Viable cells were seeded and allowed to adhere for 12 h before a test drug was added in 96-well plates at an initial density of 1.0×10^5 cells/mL. Tumour cell lines were separately exposed to various concentrations of the tested compounds followed by incubation at a temperature of 37° C. during 96 h inside a medium of fresh RMPI 1640. Cells were subsequently incubated at 37° C. using MTT at 0.5 mg/mL during 4 h. After removal of supernatant, formazan crystals were dissolved in isopropanol and the optical density was measured at 570 nm. CX-4945 was used as a positive control.

For another assay, the system named is MDA-MB-231 (breast). In words: In vitro cytotoxic activity assay (MTT), MDA-MB-231. It is filed as cell-based. The note with it: Homo sapiens; MDA-MB-231 (breast) cells, exposed for 96 hours; read-out: IC50, 50% inhibition of cell proliferation. The method, then:
as §1

The subject of another assay is PC3 (prostate). In words: In vitro cytotoxic activity assay (MTT), PC3. The conditions noted are these: Homo sapiens, Prostate cell; PC3 (prostate) cells, exposed for 96 hours; read-out: IC50, 50% inhibition of cell proliferation. It counts as cell-based. The method, then: as §1
Another assay deals with MCF7 (breast). In words: In vitro cytotoxic activity assay (MTT), MCF7. It is filed as cell-based. The conditions noted are these: Homo sapiens; MCF7 (breast) cells, exposed for 96 hours; read-out: IC50, 50% inhibition of cell proliferation. How it is done: as §1
In the next assay the test system is H1299 (lung). In words: In vitro cytotoxic activity assay (MTT), H1299. It counts as cell-based. The conditions noted are these: Homo sapiens, NCI-H1299; H1299 (lung) cells, exposed for 96 hours; read-out: IC50, 50% inhibition of cell proliferation. How it is done:
as §1

Assay [1] concerns the target T1, recombinant human CK2 (RRββ-holoenzyme) (Homo sapiens, UniProt P68400).
T1 construct: purchased Millipore
In words: CK2 Kinase Assay (33P-ATP, filter plate). It is filed as biochemical. The note with it: final ATP concentration 15 μM, 10 min at 30° C., eight concentrations; read-out: protein kinase CK2 IC50. The method, then: CK2 Kinase Assay was conducted using the protocol as described in Pierre F. et al; J. Med. Chem. 2011, 54, 635-654. The tested compounds in aqueous solution were added at a volume of 10 μL to a reaction mixture comprising 10 μL of assay dilution buffer (ADB; 20 mM MOPS, pH 7.2, 25 mM β-glycerol phosphate, 5 mM EGTA, 1 mM sodium orthovanadate, and 1 mM dithiothreitol), 10 μL of substrate peptide (RRRDDDSDDD, dissolved in ADB at a concentration of 1 mM), 10 μL of recombinant human CK2 (RRββ-holoenzyme, 25 ng dissolved in ADB; Millipore). Reactions were initiated by the addition of 10 μL of ATP solution (90% 75 mMMgCl2, 75 μM ATP (final ATP concentration:15 μM) dissolved in ADB; 10% [γ-33P] ATP (stock 1 mCi/100 μL; 3000 Ci/mmol (Perkin-Elmer) and maintained for 10 min at 30° C. The reactions were quenched with 100 μL of 0.75% phosphoric acid and then transferred to and filtered through a phosphor cellulose filter plate (Millipore). After washing each well five times with 0.75% phosphoric acid, the plate was dried under vacuum for 5 min and, following the addition of 15 μL of scintillation fluid to each well, the residual radioactivity was measured using a Wallac luminescence counter. The IC50 values were derived from eight concentrations of test inhibitors.

A further assay deals with HL60 (leukemia). In words: In vitro cytotoxic activity assay (MTT), HL60. It is filed as cell-based. The conditions noted are these: Homo sapiens, HL-60; HL60 (leukemia) cells, exposed for 96 hours; read-out: IC50, 50% inhibition of cell proliferation. How it is done: as §1
For another assay, the system named is A375 (melanoma). In words: In vitro cytotoxic activity assay (MTT), A375. It is filed as cell-based. The note with it: Homo sapiens, A-375; A375 (melanoma) cells, exposed for 96 hours; read-out: IC50, 50% inhibition of cell proliferation. How it is done:
as §1

The next assay has as its system MIAPaCa-2 (pancreas). In words: In vitro cytotoxic activity assay (MTT), MIAPaCa-2. It counts as cell-based. The conditions noted are these: Homo sapiens, MIA PaCa-2; MIAPaCa-2 (pancreas) cells, exposed for 96 hours; read-out: IC50, 50% inhibition of cell proliferation. The method, then: as §1

T1 sequence (P68400 whole entry): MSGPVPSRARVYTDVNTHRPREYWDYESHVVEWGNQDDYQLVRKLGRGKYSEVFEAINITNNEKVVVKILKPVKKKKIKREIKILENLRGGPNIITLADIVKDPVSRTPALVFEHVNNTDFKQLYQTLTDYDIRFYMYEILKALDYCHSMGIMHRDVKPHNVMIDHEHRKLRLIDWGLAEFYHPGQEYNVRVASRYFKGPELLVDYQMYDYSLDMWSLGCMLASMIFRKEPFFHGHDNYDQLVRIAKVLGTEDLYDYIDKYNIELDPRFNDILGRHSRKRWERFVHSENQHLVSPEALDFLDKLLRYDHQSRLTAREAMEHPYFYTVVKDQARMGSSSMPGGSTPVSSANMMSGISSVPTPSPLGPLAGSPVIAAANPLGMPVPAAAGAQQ
T1 sequence (P67870 whole entry partner): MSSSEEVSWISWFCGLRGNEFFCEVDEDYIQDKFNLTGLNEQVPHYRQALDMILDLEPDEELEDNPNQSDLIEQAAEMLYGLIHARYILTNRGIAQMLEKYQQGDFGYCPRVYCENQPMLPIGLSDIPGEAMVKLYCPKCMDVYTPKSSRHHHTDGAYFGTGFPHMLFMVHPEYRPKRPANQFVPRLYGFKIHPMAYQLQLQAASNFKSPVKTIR

Take `O=C(O)c1cc2c([nH]c3cc(O)ccc32)c(Nc2cccc(Cl)c2)n1` [Compound 1, 1-((3-chlorophenyl)amino)-7-hydroxy-9H-pyrido[3,4-b]indole-3-carboxylic Acid]: the IC50 came to 1600 nM with HCT116 (colon); 2500 nM in the assay on MDA-MB-231 (breast); 1200 nM in the assay on PC3 (prostate); 3200 nM with MCF7 (breast); 1800 nM in the assay on H1299 (lung); 165 nM in assay [1]. Further, the results for the IC50 with HL60 (leukemia), with A375 (melanoma) and in the assay on MIAPaCa-2 (pancreas) were 4100 nM, 5700 nM and 3300 nM, respectively.

The values above are taken from US11897881B1, “Substituted pyrido[3,4-b]indole-3-carboxylic acids as CK2 inhibitors” (KING FAISAL UNIVERSITY, priority 2023, dated 2024).
